Common to all, as to type: cell-based
Test [1] concerns T24: human urinary bladder carcinoma cells. The test can be described thus: MTT cytotoxicity assay on T24 cells. Particulars: for IC50: Homo sapiens, T-24, MTT, 48 h incubation, n = 3, NA: noncytotoxic at the concentrations tested; for SI (T24): IC50 MRC-5/IC50 T24. How it is done: (§1) Cytotoxicity was determined using the MTT colorimetric assay, and half-maximal inhibitory concentrations (IC50, μM) were obtained for all cell lines (Table ). The selectivity index (SI) was calculated as the ratio of IC50 MRC-5/IC50 cancer cell line. Doxorubicin was employed as a positive control due to its broad-spectrum clinical use, either alone or in combination, against hepatocellular, ovarian, cervical, and bladder cancers. −
(§2) In vitro biological assays were performed by using five human cell lines for cytotoxicity evaluation. HepG2 cells (ATCC HB-8065), derived from a human hepatocellular carcinoma of the liver (person), were cultured in Dulbecco’s modified Eagle medium (DMEM) supplemented with 5% fetal bovine serum (FBS), penicillin/streptomycin (100 IU/mL), and amphotericin B (5 μg/mL), in a humidified incubator with 5% CO2 at 37 °C. These cells were plated at a concentration of 2.0 × 10^4 cells/well in 96-well microplates. MRC-5 cells (ATCC CCL-171), derived from human lung fibroblasts of a […] fetus, were cultured under the same conditions and plated at 1.0 × 10^4 cells/well. T24 cells (ATCC HTB-4), established from a transitional cell carcinoma of the bladder (person), were also cultured under identical conditions and plated at a density of 1.0 × 10^4 cells/well. TOV-21G cells (ATCC CRL-11730), derived from a primary malignant ovarian adenocarcinoma (person), were maintained in DMEM with the same supplementation and environmental conditions and plated at 5.0 × 10^4 cells/well. […]
(§3) HeLa, HepG2, MRC-5, T24, and TOV-21G cells were suspended in a culture medium supplemented with 5% fetal bovine serum (FBS) and seeded into 96-well microplates. The plates were incubated under a humidified atmosphere containing 5% CO2 at 37 °C for 24 h, allowing for adherence and monolayer formation. , Eight serial dilutions of the test samples, previously solubilized in dimethyl sulfoxide (DMSO), were prepared in DMEM supplemented with 1% FBS, covering a concentration range from […], and the results were converted to […]. The volume of DMSO in each well was limited to a final concentration not exceeding 2%. Following monolayer formation, the culture medium was aspirated and replaced with 100 μL of the diluted test samples and 100 μL of DMEM containing 1% FBS. The plates were then incubated under the same atmospheric and temperature conditions.
(§4) Two hours prior to end point reading, 20 μL of MTT [3-(4,5-dimethylthiazol-2-yl)-2,5-diphenyltetrazolium bromide] solution (1.0 mg/mL in sterile phosphate-buffered saline, Sigma-Aldrich) was added to each well. The incubation period following sample addition varied according to the cell line: 24 h for MRC-5, 48 h for T24, and 72 h for HeLa, HepG2, and TOV-21G. After the appropriate incubation, absorbance was measured by using a VICTOR X3 microplate reader (PerkinElmer), and data were processed with WorkOut 2.5 software at a wavelength of 490 nm. Formazan formation, resulting from the MTT reduction by metabolically active cells, was used as an indirect measure of cell viability. The percentage of cytotoxicity was calculated using the equation % cytotoxicity = [(A – B)/A] × 100, where A is the optical density (OD4 9 0) of untreated control cells and B is the OD4 9 0 of treated cells.
(§5) Cytotoxicity was expressed as the 50% cytotoxic concentration (CC5 0), representing the concentration of sample required to reduce cell viability by 50% relative to that of the untreated control.
(Tetrazolium assays rely on reduction of a dye to a coloured formazan, in cell work by metabolically active cells.)

The test system of test [2] is TOV-21G: human ovarian adenocarcinoma cells. The test can be described thus: MTT cytotoxicity assay on TOV-21G cells. To be noted: for IC50: Homo sapiens, TOV21G, MTT, 72 h incubation, n = 3, NA: noncytotoxic at the concentrations tested; for SI (TOV-21G): IC50 MRC-5/IC50 TOV-21G. How it is done: as §1, §2, §3, §4, §5
The subject of test [3] is HeLa: human cervical adenocarcinoma cells. Description: MTT cytotoxicity assay on HeLa cells. Particulars: for IC50: Homo sapiens, HeLa, MTT, 72 h incubation, n = 3, NA: noncytotoxic at the concentrations tested; for SI (HeLa): IC50 MRC-5/IC50 HeLa. The procedure:
as §1, §2, §3, §4, §5

The test system of test [4] is MRC-5: human lung fibroblast cells. The test can be described thus: MTT cytotoxicity assay on MRC-5 cells. Particulars: MRC5, 24 h incubation, n = 3, ± standard deviation. The procedure: as §1, §2, §3, §4, §5
The test system of test [5] is HepG2: human liver hepatocellular carcinoma cells. Description: MTT cytotoxicity assay on HepG2 cells. Particulars: for IC50: Homo sapiens, HepG2, MTT, 72 h incubation, n = 3, NA: noncytotoxic at the concentrations tested; for SI (HepG2): IC50 MRC-5/IC50 HepG2. The procedure: as §1, §2, §3, §4, §5

By IC50 is commonly meant the point on the concentration scale where inhibition reaches its midpoint.

On to `COc1cc(N)cc(/C=C/C(=O)c2ccc(C)cc2)c1O` [compound 8, (E)-3-(5-Amino-2-hydroxy-3-methoxyphenyl)-1-(p-tolyl)-prop-2-en-1-one], for which the IC50 in test [1] came out at 158.6 ± 1.4 µM; in test [2] it was 53.1 ± 2.6 µM; in test [3] it was 11.5 ± 1.8 µM; in test [4], 40.9 ± 2 µM. Besides, the “SI (T24)” value in test [1] came out at 0.2. Moreover, the “SI (TOV-21G)” value in test [2] is 0.7. Further, the “SI (HeLa)” value in test [3] is on record as 3.5.

Take `CCCc1cc(/C=C/C(=O)c2ccc(C)cc2)c(OC(C)=O)c(OC)c1` [compound 2, (E)-2-Methoxy-6-(3-oxo-3-(p-toluyl)-prop-1-en-1-yl)-4-propylphenyl Acetate]: the IC50 turned out to be 59.5 ± 1.5 µM in test [1]; 1.2 ± 1.1 µM in test [2]; 3.6 ± 1.3 µM in test [3]; 16.1 ± 1.5 µM in test [4]; 4.2 ± 1.2 µM in test [5]. In test [1], the “SI (T24)” value worked out at 0.2. The “SI (TOV-21G)” value in test [2] was determined as 13.3. Besides, the “activity against TOV-21G relative to hit 1” value in test [2] (ratio of IC50 values, 1 vs 2) is recorded as “over six times more active”. Besides, in test [3], the “SI (HeLa)” value is 4.7. The “SI (HepG2)” value in test [5] is given as 3.8.

`CCCc1cc(OC)c(O)c(C(=O)/C=C/c2ccc(F)cc2)c1` [compound 18, (E)-3-(4-Fluorophenyl)-1-(2-hydroxy-3-methoxy-5-propylphenyl)-prop-2-en-1-one]: the IC50 in test [1] came out at 15.4 ± 1.5 µM; in test [2], 4.8 ± 1.4 µM; in test [3] it was 4.1 ± 1.3 µM; in test [4] it was 11.5 ± 1.2 µM; in test [5], 8.3 ± 1.2 µM. In addition, the “SI (T24)” value in test [1] amounted to 0.7. In addition, the “SI (TOV-21G)” value in test [2] stood at 2.3. Also, the “SI (HeLa)” value in test [3] is 2.8. Also, the “SI (HepG2)” value in test [5] is given as 1.3.

Consider `COc1cccc2c1C(=O)c1c(O)c3c(c(O)c1C2=O)C[C@@](O)(C(=O)CO)C[C@@H]3O[C@H]1C[C@H](N)[C@H](O)[C@H](C)O1` [doxorubicin, reference compound], for which the IC50 is 4.4 ± 1.3 µM in test [1]; 0.5 µM in test [2]; 2.9 ± 1.1 µM in test [3]; 0.6 ± 1.2 µM in test [4]; 0.06 µM in test [5]. Moreover, in test [1], the “SI (T24)” value amounted to 0.1. Moreover, in test [2], the “SI (TOV-21G)” value is 1.3. For the same compound, the “SI (HeLa)” value in test [3] turned out to be 0.2.

As for `CCCc1cc(/C=C/C(=O)c2ccccc2)c(O)c(OC)c1` [compound 11, (E)-3-(2-Hydroxy-3-methoxy-5-propylphenyl)-1-phenylprop-2-en-1-one], in test [1], the IC50 turned out to be 9.2 ± 1.2 µM and the “SI (T24)” value is given as 1.2. Also, in test [2], the IC50 is 11.9 ± 1.5 µM and the “SI (TOV-21G)” value was determined as 0.9. Moreover, in test [3], the IC50 is 2.1 ± 1.1 µM and the “SI (HeLa)” value is 5.2. Moreover, the IC50 in test [4] amounted to 11 ± 1.2 µM. In test [5], the IC50 turned out to be 4.6 ± 1.2 µM and the “SI (HepG2)” value turned out to be 2.3.

With `CCCc1cc(/C=C/C(=O)c2ccc(C(=O)/C=C/c3cc(CCC)cc(OC)c3O)cc2)c(O)c(OC)c1` [compound 12, (2E,2′E)-1,1′-(1,4-Phenylene)-bis(3-(2-hydroxy-3-methoxy-5-propylphenyl)-prop-2-en-1-one)], in test [1], the IC50 amounted to 10.4 ± 1.7 µM and the “SI (T24)” value turned out to be 3.3. In test [2], the IC50 was 33.7 ± 2.4 µM and the “SI (TOV-21G)” value came out at 1.0. In test [3], the IC50 was found to be 20.4 ± 1.5 µM and the “SI (HeLa)” value turned out to be 1.7. Also, the IC50 in test [4] amounted to 35 ± 1.5 µM.

Consider `CCCc1cc(/C=C/C(=O)c2ccc(C)cc2)c(OCc2ccccc2)c(OC)c1` [compound 4, (E)-3-(2-(Benzyloxy)-3-methoxy-5-propylphenyl)-1-(p-toluyl)-prop-2-en-1-one], for which the IC50 in test [4] is 242.4 ± 2.4 µM. Moreover, in test [5], the IC50 stood at 16.9 ± 1.3 µM and the “SI (HepG2)” value is reported as 14.3.
